Assay results as given in article PMC12300992, “A Machine Learning Platform for Isoform-Specific Identification and Profiling of Human Carbonic Anhydrase Inhibitors” (Pharmaceuticals, 2025).

Assays:
hCA I = hCA I (Homo sapiens, UniProt P00915); experiment: CO2 hydrase stopped-flow inhibition assay, hCA I; conditions: for experimental activity class hCA I: Table S2, Ki threshold of 1 µM
Method: (§1) The ionic strength was maintained at a constant using 0.1 M Na2SO4 or NaClO4, as these anions are non-inhibitory at the concentration employed. […] Inhibitor stock solutions were prepared at a concentration of 10 mM in 1:1, v/v DMSO/water mixture and were subsequently diluted up to 0.01 nM in the assay buffer. To determine the inhibition constant (Ki), at least seven different inhibitor concentrations were tested. The enzyme and the inhibitor were pre-incubated for 15 min to allow the complete formation of the enzyme-inhibitor complex. Each inhibitor concentration was tested in triplicate, and the values reported throughout the study represent the mean of these replicates. […] These enzyme concentrations were measured by titration with ethoxzolamide and spectrophotometrically for CA I and II.

hCA II = hCA II (Homo sapiens, UniProt P00918); experiment: CO2 hydrase stopped-flow inhibition assay, hCA II; conditions: for experimental activity class hCA II: Table S2, Ki threshold of 1 µM
Method: as §1

hCA IX = hCA IX (Homo sapiens, UniProt Q16790); experiment: CO2 hydrase stopped-flow inhibition assay, hCA IX; conditions: for experimental activity class hCA IX: Table S2, Ki threshold of 1 µM
Method: as §1

hCA XII = hCA XII (Homo sapiens, UniProt O43570); experiment: CO2 hydrase stopped-flow inhibition assay, hCA XII; conditions: for experimental activity class hCA XII: Table S2, Ki threshold of 1 µM
Chain of hCA XII (O43570 25-354): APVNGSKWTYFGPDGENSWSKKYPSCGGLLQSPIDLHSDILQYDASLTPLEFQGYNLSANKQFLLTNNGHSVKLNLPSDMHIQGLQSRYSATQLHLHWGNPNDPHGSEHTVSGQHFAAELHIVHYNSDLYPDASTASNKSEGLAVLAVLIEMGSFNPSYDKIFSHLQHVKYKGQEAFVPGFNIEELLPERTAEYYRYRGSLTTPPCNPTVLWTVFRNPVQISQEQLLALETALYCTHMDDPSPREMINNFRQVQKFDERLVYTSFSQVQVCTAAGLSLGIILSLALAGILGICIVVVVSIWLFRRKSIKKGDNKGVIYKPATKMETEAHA
Method: as §1

α-amylase = tested on: α-amylase; set-up: method as in PMID 26395057; conditions: cited from earlier work
[1] = tested on: Z mutant (Glu342Lys) of α1-antitrypsin; set-up: method as in PMID 17918823; conditions: cited from earlier work
bacterial DNA gyrase B = tested on: bacterial DNA gyrase B; set-up: method as in PMID 20045642; conditions: cited from earlier work

Chain of hCA I (P00915 whole entry): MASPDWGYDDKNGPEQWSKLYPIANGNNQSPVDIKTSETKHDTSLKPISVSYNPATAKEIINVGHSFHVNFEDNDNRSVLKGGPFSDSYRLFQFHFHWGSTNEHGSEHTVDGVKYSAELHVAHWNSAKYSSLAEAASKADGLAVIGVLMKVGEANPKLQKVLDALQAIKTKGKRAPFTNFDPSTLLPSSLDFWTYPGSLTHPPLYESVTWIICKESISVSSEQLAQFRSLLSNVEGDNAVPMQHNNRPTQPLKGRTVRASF

Ki (hCA I) [nM] | experimental activity class hCA I (hCA I) | Ki (hCA II) [nM] | experimental activity class hCA II (hCA II) | Ki (hCA IX) [nM] | experimental activity class hCA IX (hCA IX) | Ki (hCA XII) [nM] | experimental activity class hCA XII (hCA XII) | selectivity for hCA II over hCA I (hCA II; hCA II vs hCA I) | SMILES | inhibitory activity against α-amylase (α-amylase) | effect on rate of polymerization of Z α1-antitrypsin [1] | bacterial DNA gyrase B inhibition (bacterial DNA gyrase B)
31600 | Inactive | > 100000 | Inactive | > 100000 | Inactive | > 100000 | Inactive | – | O=S(=O)(Nc1cccc(C(F)(F)F)c1)c1cc(Cl)ccc1Cl [Compound 10] | – | – | –
36.2 | Active | 6.8 | Active | 2520 | Inactive | 603 | Active | approximately five times more active | NS(=O)(=O)c1ccc(OCCn2ccnc2)cc1 [Compound 4] | – | – | –
666 | Active | 16.4 | Active | 73.7 | Active | 49.4 | Active | – | CCOc1ccccc1C(=O)Nc1nc2ccc(S(N)(=O)=O)cc2s1 [Compound 11] | – | – | –

Further lines, the molecule ahead of its results:

SMILES | Ki (hCA I) [nM] | experimental activity class hCA I (hCA I) | Ki (hCA II) [nM] | experimental activity class hCA II (hCA II) | Ki (hCA IX) [nM] | experimental activity class hCA IX (hCA IX) | Ki (hCA XII) [nM] | experimental activity class hCA XII (hCA XII) | selectivity for hCA II over hCA I (hCA II; hCA II vs hCA I) | inhibitory activity against α-amylase (α-amylase) | effect on rate of polymerization of Z α1-antitrypsin [1] | bacterial DNA gyrase B inhibition (bacterial DNA gyrase B)
O=C(Nn1cnnc1)c1cccc(S(=O)(=O)Nc2cc(C(F)(F)F)ccc2Cl)c1 [Compound 3] | > 100000 | Inactive | > 100000 | Inactive | > 100000 | Inactive | > 100000 | Inactive | – | – | – | –
NS(=O)(=O)c1ccc(Nc2nc(-c3ccc(O)cc3O)cs2)cc1 [Compound 12] | 1080 | Inactive | 151 | Active | 313 | Active | 648 | Active | – | promising inhibitory activity | reduce the rate of polymerization | inhibitor
NS(=O)(=O)c1ccc(CCNC(=O)C/C=C2/NC(=O)c3c(sc4c3CCCC4)N2)cc1 [Compound 2] | 1020 | Inactive | 11.6 | Active | 713 | Active | 30.6 | Active | – | – | – | –
